One data set relates to HRV. The conditions noted are these: read-out: IC50 (anti-HRV); cited from earlier work.
For data set [1], the system named is HRV-2. Nature of the data set: Cytopathic effect inhibition assay (MTT), HRV-2 in HeLa cells. Type of data set: cell-based, human rhinovirus. Conditions: read-out: IC50 (95% CL) HRV-2. As to the method:
(§1) Monolayers of HeLa and MRC5 cells were seeded onto a 96-well culture plate as stated previously. Subsequently, 90 μL media containing several different concentrations (1–1000 μg/mL) of each test material in DMSO was put into the wells, and then 10 μL of 10×TCID50 of the virus stock was added to produce an appropriate CPE within 2 days after infection. Ribavirin served as a reference control and was similarly prepared. Negative controls consisted of the DMSO solution. Viral inhibition rate (VIR) (%) was calculated according to the formula [21], VIR = (A tV—A cV)/(A cd—A cV) × 100, where A tV is the optical density measured with a given concentration of the test compound in HRV infected cells; A cV is the optical density measured for the control untreated HRV infected cells; A cd is the optical density measured for the control untreated HRV uninfected cells.
(§2) The CC50 and IC50 values were determined using GraphPad Prism 5 software program (GraphPad Software, La Jolla, CA). […] The selectivity index (SI) was determined as the ratio of CC50 to IC50 [23]. All data represent the mean ± SD of duplicate or triplicate samples of three independent experiments. Statistical analyses were carried out using SAS 9.13 program (SAS Institute, Cary, NC). Data from two groups were analyzed by a Student’s t-test, and multiple groups were analyzed by a one-way analysis of variance and Bonferroni multiple comparison post-test.
A general note: Damage to the host cells serves as the signal in cytopathic effect assays.

A short description of data set [2]: Cytotoxicity MTT assay in HeLa cells. Conditions: human, tetrazolium assay, read-out: CC50 (95% CL). It is filed as cell-based. As to the method: (§3) The cytotoxicity of the test materials to two human cell lines was evaluated using an MTT assay described previously by Morgan. In brief, a 10× stock solution of MTT was prepared by adding 5 mg/mL MTT in phosphate-buffered saline (PBS) (pH 7.4). The stock solution was sterile-filtered and stored at −20°C. HeLa and MRC5 cells were seeded onto 96-well culture plates at a density of 3 × 10^4 cells per well for 1 day. The culture medium was removed and the plates with monolayer cells were replaced with media containing several different concentrations (1–1000 μg/mL) of the test materials in dimethylsulfoxide (DMSO). After incubation at 37°C and 5% CO2 for 2 days, the culture plates were then washed once with 200 μL PBS. A volume of 100 μL medium containing 0.05% MTT were added to each well and then incubated for 4 h at the same condition. After then, MTT solution was removed and 150 μL DMSO was added to each well. Finally, the plate was shaken for 15 min to dissolve the purple formazan crystals that had formed. Absorbance was read at 560 nm by using a VersaMax microplate reader (Molecular Devices, Sunnyvale, CA) with a reference absorbance at 670 nm.
(§4) The CC50 and IC50 values were determined using GraphPad Prism 5 software program (GraphPad Software, La Jolla, CA). […] The selectivity index (SI) was determined as the ratio of CC50 to IC50 [23]. All data represent the mean ± SD of duplicate or triplicate samples of three independent experiments. […] Data from two groups were analyzed by a Student’s t-test, and multiple groups were analyzed by a one-way analysis of variance and Bonferroni multiple comparison post-test.

The subject of data set [3] is HRV-4. Nature of the data set: Cytopathic effect inhibition assay (MTT), HRV-4 in MRC5 cells. It is filed as cell-based, human rhinovirus. Conditions: HRV-4 in MRC5 cells. As to the method: as §1, §2
Data set [4] relates to two HRVs (HRV-2 and HRV-4). Nature of the data set: Cytopathic effect inhibition assay, summary over both serotypes. Type of data set: cell-based, human rhinovirus. Conditions: Rhinovirus A; range over HRV-2 and HRV-4, HeLa and MRC5 cells; read-out: IC50 toward two HRVs (range). As to the method: as §1, §2
A short description of data set [5]: Cytotoxicity MTT assay in MRC5 cells. The conditions noted are these: human, tetrazolium assay, read-out: CC50 (95% CL). Type of data set: cell-based, human. As to the method: as §3, §4
For orientation: Formazan colour is commonly taken as a measure of viable cells.

A further data set relates to MRC5 cells. Nature of the data set: Cytotoxicity MTT assay in MRC5 cells. It is filed as cell-based, human. As to the method:
as §3, §4

Data set [6] has as its system HRV-4. Nature of the data set: Cytopathic effect inhibition assay (MTT), HRV-4 in HeLa cells. Type of data set: cell-based, human rhinovirus. The conditions noted are these: Human rhinovirus sp., HRV4, HeLa, read-out: IC50 (95% CL) HRV-4. As to the method:
Extraction procedures of air-dried root of P. lactiflora were performed as described previously by Ngan et al.. For isolation of active principles, viral CPE inhibition assay toward HRV-4 in HeLa cell was used. […]. Column fractions were monitored by TLC on silica gel plates developed with chloroform and methanol (7:3 by volume) mobile phase. Fractions with similar R f values on the TLC plates were pooled. Active fractions 4 to 5 (EI, 2.44 g) and 7 (EII, 0.569 g) were obtained. The active fraction EI was rechromatographed on a silica gel column by elution with chloroform and methanol (70:30 by volume) to give nine fractions (each about 450 mL). A preparative HPLC was used for separation of constituents from the active fractions 3 to 5 (0.176 g). The column was a 4.6 mm i.d. × 150 mm Eclipse XDB-C18 (Agilent, Santa Clara, CA) using a mobile phase of methanol and water (3:7 by volume) at a flow rate of 0.5 mL/min. Chromatographic separations were monitored using a UV detector at 260 nm. […]. The three antiviral principles were characterized as paeonol (PA) (1), gallic acid (GA) (2), and 1,2,3,4,6-penta-O-galloyl-β-D-glucopyranose (PGG) (3) (Fig 1) by spectroscopic analyses, including MS and NMR. PA (1): compound 1 was isolated as an antibacterial principle from P. lactiflora root in our previous work, and the spectral data of compound 1 was largely identical to the published data. GA (2) was identified on the basis of the following evidence: white powder. UV (MeOH): λmax nm = 260. FT-IR: v max cm^–1 = 3491–3063 (OH stretch), 1608 (aromatic C = C). […] The interpretations of proton and carbon signals of compound 2 were largely consistent with those of Sakar et al.. PGG (3): compound 3 was isolated as an antibacterial principle from P. lactiflora root in our previous work, and the spectral data of compound 3 was largely identical to the published data.
as §1, §2

Data set [7] concerns HRV-2. Nature of the data set: Cytopathic effect inhibition assay (MTT), HRV-2 in MRC5 cells. Type of data set: cell-based, human rhinovirus. The conditions noted are these: HRV-2 in MRC5 cells. As to the method:
as §1, §2

Read-outs that look alike come from different tables or passages of the source.

For the molecule `C[C@@H]1CC[C@]2(C(=O)O)CC[C@]3(C)C(=CC[C@@H]4[C@@]5(C)C[C@@H](O)[C@H](OC(=O)/C=C/c6ccc(O)c(O)c6)C(C)(C)[C@@H]5CC[C@]43C)[C@@H]2[C@]1(C)O` (relative stereo) [3-O-trans-caffeoyltormentic acid], in the data set with HRV, the 50% inhibitory concentration (IC50) is 30.7 µM. Regarding `COc1cc(O)c2c(=O)c(OC)c(-c3ccc(O)c(OC)c3)oc2c1` [4ʹ,5-dihydroxy-3ʹ,3,7-trimethoxyflavone], the concentration for half-maximal inhibition (IC50) in the data set with HRV was 0.29 µM.

For `COc1cc2ccc(=O)oc2c(OC)c1OC` [6,7,8-trimethoxycoumarin], in the data set with HRV, the IC50 is 12 µM. Take `O=C(O)c1cc(O)c(O)c(O)c1` [GA, gallic acid]: the IC50 is 427 µM in the data set with HRV-2 [1] (Rhinovirus A, HRV2, HeLa); 427 µM in the data set on HRV-2 [1]; 427 to 448 µM in [4]; 448 µM in the data set on HRV-4 [6]; roughly 295 µM in the data set with HRV. Further, the half-maximal cytotoxic concentration (CC50) at 2 days was found to be 1500 µM in data set [2] and 218 µM in data set [5]. In addition, the “IC50 (95% CL) HRV-4” value in the data set with HRV-4 [3] was “ineffective”. The “concentration toxic to cells” value with MRC5 cells is no less than 290 µM. For the same molecule, the “IC50 (95% CL) HRV-2” value in the data set with HRV-2 [7] is given as “ineffective”. Regarding `COc1cc2c(c(O)c1OC)c(=O)c1ccccc1n2C` [arborinine], the IC50 with HRV was 3.19 µM.

`COc1cc2cc(Oc3ccc4ccc(=O)oc4c3)c(=O)oc2cc1OC` [daphnoretin methyl ether]: in the data set on HRV, the half-maximal inhibitory concentration (IC50) was 97.1 µM. Take `C=C1CC[C@@H](O)C(C)(C)C1CC/C(C)=C/COc1ccc2ccc(=O)oc2c1` (stereo partly drawn) [farnesiferol B]: the IC50 in the data set with HRV was roughly 2.61 µM. On to `C/C(=C\COc1ccc2ccc(=O)oc2c1)CC[C@@H]1C(C)(C)[C@H]2CC[C@]1(C)O2` [farnesiferol C], for which the IC50 in the data set on HRV is roughly 2.61 µM. `COc1cc2c(cc1OC)-c1c(OC)c(OC)cc3c1[C@H](C2)N(C)CC3` [glaucine]: the IC50 in the data set on HRV is 22 µM. As for `O=c1c(-c2ccc(O)c(O)c2)coc2cc(O[C@@H]3O[C@H](CO)[C@@H](O)[C@H](O)[C@H]3O)cc(O)c12` [orobol 7-O-D-glucoside], in the data set on HRV, the IC50 was 1.29 to 19.6 µM.

Regarding `C=C1CCC2CC(C(=C)C)C2(C)CCC(C(=C)C(=O)O)CC1CC=C(C)C` (stereo not drawn) [raoulic acid], in the data set on HRV, the IC50 is 0.51 µM. For (S)-ribalinine, in the data set with HRV, the IC50 is 83 µM.

What is called IC50 is the concentration at which inhibition is half-maximal. For orientation: CC50 means the concentration giving 50% cytotoxicity.

The values are drawn from paper PMC4393083, “Antiviral Activity and Possible Mechanism of Action of Constituents Identified in Paeonia lactiflora Root toward Human Rhinoviruses” (PLoS ONE, 2015).
